According to patent US11713341B1, “Antimicrobial NCR13 variant peptides” (Vestaron Corporation, priority 2022, dated 2023):
Where a SMILES comes first, the peptide text is derived from it.

Test system: Botrytis cinerea
Assay: Antimicrobial bioassay (Botrytis cinerea): growth inhibition by OD600
Format: cell-based
Conditions: for anti-Botrytis activities relative to NCR13a: Botrytis cinerea growth, comparison with NCR13a; for Activity ratio to NCR13a: anti-Botrytis cinerea activity (IC50) relative to comparator NCR13a
Experimental: The antimicrobial effect of the NCR13 variant peptides (NVPs) of the present disclosure were evaluated against the fungal species, Botrytis cinerea. […] The growth of Botrytis cinerea was then assessed via OD600 nm after incubation with a given NVP at room temperature after 96 hours. The IC50 of each peptide analyzed is shown in ppm.
The antimicrobial effect of the NCR13 variant peptides (NVPs) of the present disclosure were evaluated against the fungal species, Botrytis cinerea. […] The growth of Botrytis cinerea was then assessed via OD600 nm after incubation with a given NVP at room temperature after 96 hours.
The NVPs assessed were as follows: NVPM3 (+L) (SEQ ID NO: 5); NVPM5 (+M) (SEQ ID NO: 7); NVPM6 (+F) (SEQ ID NO: 8); NVPM7 (+W) (SEQ ID NO: 9); NVPM9 (+S) (SEQ ID NO: 11); NVPM11 (+Y) (SEQ ID NO: 13); NVPM14 (+D) (SEQ ID NO: 16); and NVPM15 (+E) (SEQ ID NO: 17).
NVPs having an amino acid sequence of SEQ ID NOs: 5, 7, 8, 9, 11, 13, 16, and 17 were generated as described above in Example 1. The peptide, NCR13a, having an amino acid sequence of: […] (SEQ ID NO: 2) was selected as a comparator peptide, with which the antifungal activity of the foregoing NVPs was compared.
The fungal species was Botrytis cinerea was cultured in potato dextrose agar plates. Fungal spores were collected from the agar plates and suspended into de-ionized water, followed by enumeration in a Petroff-Hausser counting chamber (VWR).
The 96-well plates were incubated at room temperature for 96 hours without shaking. The OD600 of the culture plate was determined using SpectraMax plate reader. Relative OD600 was determined by normalizing cell growth to control wells containing neither NVPs nor NCR13a. The OD600 was used to determine IC50.

SMILES	anti-Botrytis activities relative to NCR13a	Activity ratio to NCR13a
CC[C@H](C)[C@H](NC(=O)[C@H](CS)NC(=O)[C@H](CCCCN)NC(=O)[C@@H]1CCCN1C(=O)[C@@H](NC(=O)[C@H](CCCCN)NC(=O)[C@@H]1CCCN1C(=O)[C@H](CCCCN)NC(=O)[C@H](CCCNC(=N)N)NC(=O)[C@H](CS)NC(=O)[C@H](C)NC(=O)[C@H](Cc1ccccc1)NC(=O)[C@H](CCCCN)NC(=O)[C@H](CCCCN)NC(=O)[C@H](CS)NC(=O)[C@H](CC(=O)O)NC(=O)[C@H](CCCCN)NC(=O)[C@H](CC(=O)O)NC(=O)[C@H](CO)NC(=O)[C@H](CCC(N)=O)NC(=O)[C@H](CS)NC(=O)[C@@H]1CCCN1C(=O)[C@H](CCCCN)NC(=O)[C@@H](NC(=O)[C@@H](N)Cc1ccc(O)cc1)[C@@H](C)O)C(C)C)C(=O)N[C@@H](CC(N)=O)C(=O)NCC(=O)N[C@@H](Cc1ccccc1)C(=O)N[C@@H](CS)C(=O)N[C@@H](CCCCN)C(=O)N[C@@H](CS)C(=O)N[C@H](C(=O)N[C@@H](CCCNC(=N)N)C(=O)O)C(C)C [NVPM11] (H-YTKPCQSDKDCKKFACRKPKVPKCINGFCKCVR-OH; N-terminus and C-terminus assumed)	improved anti-Botrytis activities relative to NCR13a	1.77
CC[C@H](C)[C@H](NC(=O)[C@H](CS)NC(=O)[C@H](CCCCN)NC(=O)[C@@H]1CCCN1C(=O)[C@@H](NC(=O)[C@H](CCCCN)NC(=O)[C@@H]1CCCN1C(=O)[C@H](CCCCN)NC(=O)[C@H](CCCNC(=N)N)NC(=O)[C@H](CS)NC(=O)[C@H](C)NC(=O)[C@H](Cc1ccccc1)NC(=O)[C@H](CCCCN)NC(=O)[C@H](CCCCN)NC(=O)[C@H](CS)NC(=O)[C@H](CC(=O)O)NC(=O)[C@H](CCCCN)NC(=O)[C@H](CC(=O)O)NC(=O)[C@H](CO)NC(=O)[C@H](CCC(N)=O)NC(=O)[C@H](CS)NC(=O)[C@@H]1CCCN1C(=O)[C@H](CCCCN)NC(=O)[C@@H](NC(=O)[C@@H](N)CCSC)[C@@H](C)O)C(C)C)C(=O)N[C@@H](CC(N)=O)C(=O)NCC(=O)N[C@@H](Cc1ccccc1)C(=O)N[C@@H](CS)C(=O)N[C@@H](CCCCN)C(=O)N[C@@H](CS)C(=O)N[C@H](C(=O)N[C@@H](CCCNC(=N)N)C(=O)O)C(C)C [NVPM5] (H-MTKPCQSDKDCKKFACRKPKVPKCINGFCKCVR-OH; N-terminus and C-terminus assumed)	improved anti-Botrytis activities relative to NCR13a	2.74
CC[C@H](C)[C@H](NC(=O)[C@H](CS)NC(=O)[C@H](CCCCN)NC(=O)[C@@H]1CCCN1C(=O)[C@@H](NC(=O)[C@H](CCCCN)NC(=O)[C@@H]1CCCN1C(=O)[C@H](CCCCN)NC(=O)[C@H](CCCNC(=N)N)NC(=O)[C@H](CS)NC(=O)[C@H](C)NC(=O)[C@H](Cc1ccccc1)NC(=O)[C@H](CCCCN)NC(=O)[C@H](CCCCN)NC(=O)[C@H](CS)NC(=O)[C@H](CC(=O)O)NC(=O)[C@H](CCCCN)NC(=O)[C@H](CC(=O)O)NC(=O)[C@H](CO)NC(=O)[C@H](CCC(N)=O)NC(=O)[C@H](CS)NC(=O)[C@@H]1CCCN1C(=O)[C@H](CCCCN)NC(=O)[C@@H](NC(=O)[C@@H](N)CCC(=O)O)[C@@H](C)O)C(C)C)C(=O)N[C@@H](CC(N)=O)C(=O)NCC(=O)N[C@@H](Cc1ccccc1)C(=O)N[C@@H](CS)C(=O)N[C@@H](CCCCN)C(=O)N[C@@H](CS)C(=O)N[C@H](C(=O)N[C@@H](CCCNC(=N)N)C(=O)O)C(C)C [NVPM15] (H-ETKPCQSDKDCKKFACRKPKVPKCINGFCKCVR-OH; N-terminus and C-terminus assumed)	improved anti-Botrytis activities relative to NCR13a	1.43
CC[C@H](C)[C@H](NC(=O)[C@H](CS)NC(=O)[C@H](CCCCN)NC(=O)[C@@H]1CCCN1C(=O)[C@@H](NC(=O)[C@H](CCCCN)NC(=O)[C@@H]1CCCN1C(=O)[C@H](CCCCN)NC(=O)[C@H](CCCNC(=N)N)NC(=O)[C@H](CS)NC(=O)[C@H](C)NC(=O)[C@H](Cc1ccccc1)NC(=O)[C@H](CCCCN)NC(=O)[C@H](CCCCN)NC(=O)[C@H](CS)NC(=O)[C@H](CC(=O)O)NC(=O)[C@H](CCCCN)NC(=O)[C@H](CC(=O)O)NC(=O)[C@H](CO)NC(=O)[C@H](CCC(N)=O)NC(=O)[C@H](CS)NC(=O)[C@@H]1CCCN1C(=O)[C@H](CCCCN)NC(=O)[C@@H](NC(=O)[C@H](C)N)[C@@H](C)O)C(C)C)C(=O)N[C@@H](CC(N)=O)C(=O)NCC(=O)N[C@@H](Cc1ccccc1)C(=O)N[C@@H](CS)C(=O)N[C@@H](CCCCN)C(=O)N[C@@H](CS)C(=O)N[C@H](C(=O)N[C@@H](CCCNC(=N)N)C(=O)O)C(C)C [NVPM1] (H-ATKPCQSDKDCKKFACRKPKVPKCINGFCKCVR-OH; N-terminus and C-terminus assumed)		2.43
CC[C@H](C)[C@H](NC(=O)[C@H](CS)NC(=O)[C@H](CCCCN)NC(=O)[C@@H]1CCCN1C(=O)[C@@H](NC(=O)[C@H](CCCCN)NC(=O)[C@@H]1CCCN1C(=O)[C@H](CCCCN)NC(=O)[C@H](CCCNC(=N)N)NC(=O)[C@H](CS)NC(=O)[C@H](C)NC(=O)[C@H](Cc1ccccc1)NC(=O)[C@H](CCCCN)NC(=O)[C@H](CCCCN)NC(=O)[C@H](CS)NC(=O)[C@H](CC(=O)O)NC(=O)[C@H](CCCCN)NC(=O)[C@H](CC(=O)O)NC(=O)[C@H](CO)NC(=O)[C@H](CCC(N)=O)NC(=O)[C@H](CS)NC(=O)[C@@H]1CCCN1C(=O)[C@H](CCCCN)NC(=O)[C@@H](NC(=O)[C@@H](N)CC(=O)O)[C@@H](C)O)C(C)C)C(=O)N[C@@H](CC(N)=O)C(=O)NCC(=O)N[C@@H](Cc1ccccc1)C(=O)N[C@@H](CS)C(=O)N[C@@H](CCCCN)C(=O)N[C@@H](CS)C(=O)N[C@H](C(=O)N[C@@H](CCCNC(=N)N)C(=O)O)C(C)C [NVPM14] (H-DTKPCQSDKDCKKFACRKPKVPKCINGFCKCVR-OH; N-terminus and C-terminus assumed)	improved anti-Botrytis activities relative to NCR13a	1.61
CC[C@H](C)[C@H](NC(=O)[C@H](CS)NC(=O)[C@H](CCCCN)NC(=O)[C@@H]1CCCN1C(=O)[C@@H](NC(=O)[C@H](CCCCN)NC(=O)[C@@H]1CCCN1C(=O)[C@H](CCCCN)NC(=O)[C@H](CCCNC(=N)N)NC(=O)[C@H](CS)NC(=O)[C@H](C)NC(=O)[C@H](Cc1ccccc1)NC(=O)[C@H](CCCCN)NC(=O)[C@H](CCCCN)NC(=O)[C@H](CS)NC(=O)[C@H](CC(=O)O)NC(=O)[C@H](CCCCN)NC(=O)[C@H](CC(=O)O)NC(=O)[C@H](CO)NC(=O)[C@H](CCC(N)=O)NC(=O)[C@H](CS)NC(=O)[C@@H]1CCCN1C(=O)[C@H](CCCCN)NC(=O)[C@@H](NC(=O)[C@@H](N)Cc1ccccc1)[C@@H](C)O)C(C)C)C(=O)N[C@@H](CC(N)=O)C(=O)NCC(=O)N[C@@H](Cc1ccccc1)C(=O)N[C@@H](CS)C(=O)N[C@@H](CCCCN)C(=O)N[C@@H](CS)C(=O)N[C@H](C(=O)N[C@@H](CCCNC(=N)N)C(=O)O)C(C)C [NVPM6] (H-FTKPCQSDKDCKKFACRKPKVPKCINGFCKCVR-OH; N-terminus and C-terminus assumed)	improved anti-Botrytis activities relative to NCR13a	1.82
